For one assay, the system named is 22Rv1. Description: 22Rv1 cell proliferation assay (Experimental Example 1, cell count). In kind it is cell-based. The settings on record: Homo sapiens, 22Rv1, read-out: 22Rv1 cell count decrease at 10 μM for 48 hours; 10 μM (method: four days); read-out: 22Rv1 cell count decrease at 10 μM. As to the method:
The human prostate cancer cell line, 22Rv1 has been reported to express a high level of AR-V7. […] Standard culture media was RPMI-1640 supplemented with 10% fetal bovine serum. The test compound initially was dissolved in DMSO at 50 mM. This stock solution was then diluted as needed for the indicated concentrations. […]
In the Table: (+)—the cell count decreased between 0 and 20%; (++)—the cell count decreased […]; (+++)—the cell count decreased by more than 50%.

The subject of another assay is 22Rv1-Enz^R. In words: 22Rv1-Enz^R cell proliferation assay, GIC50 (Experimental Example 4). In kind it is cell-based. The settings on record: Homo sapiens; 6-day culture, cell media changed every 24 hours. On the procedure:
Selected compounds were tested in the human prostate cancer cell line, 22Rv1-Enz^R as described in Geun Taek Lee et al., Molecular Cancer Therapeutics, 20:490-9 (2021). These procedures are similar to that described in Experimental Example 1, above, except that the assay conditions are a 6-day culture with cell media changed every 24 hours.
In the Table: (+)—GIC50<20 μM; (++)—GIC50<10 μM; (+++)—GIC50<1 μM.

A further assay deals with 22Rv1-Enz^R cells. Description: 22Rv1-Enz^R cell proliferation (cell count, Experimental Example 3). In kind it is cell-based, human. The following applies: 10 μM, 4 days, MG-132 (5 μM) pretreatment. On the procedure:
The human prostate cancer cell line, 22Rv1 has been reported to express a high level of AR-V7. Thus, 22Rv1 was seeded at 50,000 cells/well on a 24-well plate in quadruplicates and treated with test compound in concentrations ranging up to 20 μM for four days. Standard culture media was RPMI-1640 supplemented with 10% fetal bovine serum. The test compound initially was dissolved in DMSO at 50 mM. This stock solution was then diluted as needed for the indicated concentrations. At the end of the four-day period, cells were harvested using 1% trypsin and counted using an automated cell counter.
Cell Culture. Human CaP cell lines, LNCaP, 22Rv1, VCaP, PC3, and DU145 are obtained from the American Type Culture Collection (ATCC) and maintained in the standard culture media: RPMI-1640 supplemented with 10% fetal bovine serum (FBS). LNCaP, 22Rv1, and VCaP are androgen-responsive cell lines, while PC3 and DU145 are not. To establish SAT resistant CaP cell lines, LNCaP, 22Rv1, and VCaP are treated continuously with 10-50 μM abiraterone, apalutamide, darolutamide, or enzalutamide. After 3-6 months, stable cell lines are established and designated as LNCaP-Abi^R, LNCaP-Apa^R, LNCaP-Daro^R, LNCaP-Enz^R, VCaP-Abi^R, VCaP-Apa^R, VCaP-Daro^R, VCaP-Enz^R, 22Rv1-Abi^R, 22Rv1-Apa^R, 22Rv1-Daro^R and 22Rv1-Enz^R. Unless otherwise specified, the standard culture media for these SAT-resistant cell lines included 10 μM of their respective SAT. For the proteasome inhibitor study, the inhibitors MG132 and Epoxomicin are used. The E3 ligase inhibitors Heclin, Nutlin 3a, Thalidomide, and VH298 are used. Cell lines obtained from ATCC are confirmed by checking their morphology using optical microscopy, establishing baselines for cell proliferation, verifying species of origin using isoenzymology, and characterizing the cell's DNA fingerprint using short tandem repeat (STR) profiling. Mycoplasma contamination is also assessed using a PCR based detection system.

A further assay has as its system 22Rv1 cells. Description: Apoptosis assay (annexin-V, TUNEL) in 22Rv1. It is filed as cell-based, human. The following applies: 22Rv1, 1 μM, 0 to 48 hours; starts approximately three hours after treatment, increases through 48 hours. On the procedure:
Apoptosis Assay. An apoptosis assay is carried out using the Thermo Fisher ApoDETECT Annexin V-FITC kit following the protocol recommended by the vendor. […] Then, fixed cells are incubated with Annexin V-FITC in PBS solution for 30 minutes at room temperature. After washing three times with PBS, cells are treated with 300 nM DAPI in PBS for 5 minutes at room temperature. Finally, after washing three times with PBS, mounting solution is added and the cells are visualized using immunofluorescence microscopy. Next, a TUNEL assay is performed using Promega DeadEnd Fluorometric TUNEL system. After treatment with Test Compound and fixation as described above in the Annexin-V experiment, 100 μl of equilibration buffer is incubated for 10 min. Then, 50 μl of TdT reaction mix is added and incubated for 60 min at 37° C. in a humidified chamber. Finally, stop solution is added and samples are mounted on slides using mounting medium. To assess non-specific cytotoxicity, an LDH assay kit is used.

Where only a bound is given, the exact number is not on record here.

As for `O=C(COc1c(-c2csc(N3CCOCC3)n2)ccc(F)c1F)NCCCCCCNc1cccc2c1C(=O)N(C1CCC(=O)NC1=O)C2=O` (stereo not shown) [Example 1, 2-(2,3-difluoro-6-(2-morpholinothiazol-4-yl)phenoxy)-N-(6-((2-(2,6-dioxopiperidin-3-yl)-1,3-dioxoisoindolin-4-yl)amino)hexyl)acetamide], the inhibition at 10 µM in the assay with 22Rv1 is under 50%. In the assay on 22Rv1-Enz^R, the IC50 was under 20 µM.

As for `O=C(COc1c(-c2csc(N3CCOCC3)n2)ccc(F)c1F)NCCCCCCCCCCNc1cccc2c1C(=O)N(C1CCC(=O)NC1=O)C2=O` (stereo not shown) [Example 3, 2-(2,3-difluoro-6-(2-morpholinothiazol-4-yl)phenoxy)-N-(10-((2-(2,6-dioxopiperidin-3-yl)-1,3-dioxoisoindolin-4-yl)amino)decyl)acetamide], in the assay with 22Rv1, the inhibition at 10 µM was under 50%. The IC50 in the assay on 22Rv1-Enz^R was under 20 µM.

Regarding `Cl.NCCCCCCCCCCNc1cccc2c1C(=O)N(C1CCC(=O)NC1=O)C2=O` (stereo not shown) [Example 34, 4-((10-aminodecyl)amino)-2-(2,6-dioxopiperidin-3-yl)isoindoline-1,3-dione hydrochloride], in the assay on 22Rv1, the inhibition at 10 µM was under 50%. In addition, in the assay on 22Rv1-Enz^R cells, the “reduction of 22Rv1-Enz^R cell counts after pretreatment with MG-132” value was “substantially blocked”.

For `CN[C@@H](C)C(=O)N[C@H](C(=O)N1Cc2cc(OCCOCCOc3c(-c4csc(N5CCOCC5)n4)ccc(F)c3F)ccc2C[C@H]1C(=O)N[C@@H]1CCCc2ccccc21)C(C)(C)C.Cl.Cl` [Example 35, (S)-7-(2-(2-(2,3-difluoro-6-(2-morpholinothiazol-4-yl)phenoxy)ethoxy)ethoxy)-2-((S)-3,3-dimethyl-2-((S)-2-(methylamino)propanamido)butanoyl)-N-((R)-1,2,3,4-tetrahydronaphthalen-1-yl)-1,2,3,4-tetrahydroisoquinoline-3-carboxamide dihydrochloride], the inhibition at 10 µM with 22Rv1 was over 50%. Besides, in the assay with 22Rv1-Enz^R cells, the “reduction of 22Rv1-Enz^R cell counts after pretreatment with MG-132” value is “substantially blocked”.

Turning to `Cc1ccc(-c2csc(N3CCOCC3)n2)c(OCC(=O)NCCCCC(=O)N[C@H](C(=O)N2C[C@H](O)C[C@H]2C(=O)N[C@@H](C)c2ccc(-c3scnc3C)cc2)C(C)(C)C)c1C` [Example 37, (2S,4R)-1-((S)-2-(5-(2-(2,3-dimethyl-6-(2-morpholinothiazol-4-yl)phenoxy)acetamido)pentanamido)-3,3-dimethylbutanoyl)-4-hydroxy-N-((S)-1-(4-(4-methylthiazol-5-yl)phenyl)ethyl)pyrrolidine-2-carboxamide], in the assay with 22Rv1-Enz^R, the IC50 is under 1 µM.

With `Cc1ncsc1-c1ccc([C@H](C)NC(=O)[C@@H]2C[C@@H](O)CN2C(=O)[C@@H](NC(=O)CCC(=O)NCCCOc2c(-c3csc(N4CCOCC4)n3)ccc(F)c2F)C(C)(C)C)cc1` [Example 38, N^1-(3-(2,3-difluoro-6-(2-morpholinothiazol-4-yl)phenoxy)propyl)-N^4-((S)-1-((2S,4R)-4-hydroxy-2-(((S)-1-(4-(4-methylthiazol-5-yl)phenyl)ethyl)carbamoyl)pyrrolidin-1-yl)-3,3-dimethyl-1-oxobutan-2-yl)succinamide], in the assay on 22Rv1-Enz^R, the IC50 was under 20 µM.

In the assay with 22Rv1-Enz^R, `Cc1ncsc1-c1ccc([C@H](C)NC(=O)[C@@H]2C[C@@H](O)CN2C(=O)[C@@H](NC(=O)CCC(=O)NCCOCCOc2c(-c3csc(N4CCOCC4)n3)ccc(F)c2F)C(C)(C)C)cc1` [Example 39, N^1-(2-(2-(2,3-difluoro-6-(2-morpholinothiazol-4-yl)phenoxy)ethoxy)ethyl)-N^4-((S)-1-((2S,4R)-4-hydroxy-2-(((S)-1-(4-(4-methylthiazol-5-yl)phenyl)ethyl)carbamoyl)pyrrolidin-1-yl)-3,3-dimethyl-1-oxobutan-2-yl)succinamide] came in with an IC50 of under 20 µM.

`Cc1ncsc1-c1ccc([C@H](C)NC(=O)[C@@H]2C[C@@H](O)CN2C(=O)[C@@H](NC(=O)CNCCOCCOc2c(-c3csc(N4CCOCC4)n3)ccc(F)c2F)C(C)(C)C)cc1` [Example 40, (2S,4R)-1-((S)-2-(2-((2-(2-(2,3-difluoro-6-(2-morpholinothiazol-4-yl)phenoxy)ethoxy)ethyl)amino)acetamido)-3,3-dimethylbutanoyl)-4-hydroxy-N-((S)-1-(4-(4-methylthiazol-5-yl)phenyl)ethyl)pyrrolidine-2-carboxamide] came in with an IC50 in the assay on 22Rv1-Enz^R of under 1 µM.

Turning to `Cc1ncsc1-c1ccc([C@H](C)NC(=O)[C@@H]2C[C@@H](O)CN2C(=O)[C@@H](NC(=O)CCCCOc2c(-c3csc(N4CCOCC4)n3)ccc(F)c2F)C(C)(C)C)cc1` [Example 41, (2S,4R)-1-((S)-2-(5-(2,3-difluoro-6-(2-morpholinothiazol-4-yl)phenoxy)pentanamido)-3,3-dimethylbutanoyl)-4-hydroxy-N-((S)-1-(4-(4-methylthiazol-5-yl)phenyl)ethyl)pyrrolidine-2-carboxamide], in the assay on 22Rv1-Enz^R, the half-inhibitory concentration (IC50) was under 10 µM.

In the assay with 22Rv1-Enz^R, `Cc1ncsc1-c1ccc([C@H](C)NC(=O)[C@@H]2C[C@@H](O)CN2C(=O)[C@@H](NC(=O)CCCCOc2c(F)ccc3sc(N4CCOCC4)nc23)C(C)(C)C)cc1` [Example 42, (2S,4R)-1-((S)-2-(5-((5-fluoro-2-morpholinobenzo[d]thiazol-4-yl)oxy)pentanamido)-3,3-dimethylbutanoyl)-4-hydroxy-N-((S)-1-(4-(4-methylthiazol-5-yl)phenyl)ethyl)pyrrolidine-2-carboxamide] gave an IC50 of under 10 µM.

On to `Cc1ncsc1-c1ccc([C@H](C)NC(=O)[C@@H]2C[C@@H](O)CN2C(=O)[C@@H](NC(=O)CCCCCCOc2c(F)ccc3sc(N4CCOCC4)nc23)C(C)(C)C)cc1` [Example 43, (2S,4R)-1-((S)-2-(7-((5-fluoro-2-morpholinobenzo[d]thiazol-4-yl)oxy)heptanamido)-3,3-dimethylbutanoyl)-4-hydroxy-N-((S)-1-(4-(4-methylthiazol-5-yl)phenyl)ethyl)pyrrolidine-2-carboxamide], for which, in the assay with 22Rv1-Enz^R, the IC50 is under 20 µM.

With `O=C(O)CCCCNC(=O)COc1c(-c2csc(N3CCOCC3)n2)ccc(F)c1F` [Example C1, reference compound], the “apoptosis, annexin-V assay” value in the assay on 22Rv1 cells is recorded as “no change in apoptosis”.

These data come from US20230132823A1, “BI-FUNCTIONAL COMPOUNDS AND METHODS FOR TARGETED UBIQUITINATION OF ANDROGEN RECEPTOR” (MONTELINO THERAPEUTICS, INC., priority 2020, published 2023).
